Reference: ChEMBL document CHEMBL1201862, “PubChem BioAssay data set” (2004)
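Five concentrations, 48 hours, 96-well plates. GI50 = concentration required for 50% inhibition of growth.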 Active and inactive are the calls of the source. Rule as the data show it: active = GI50 up to about 1.1 µM and inactive = higher.

What was measured:
Test in all cases: growth of human tumour cells (NCI), 48 h
[1] = test system: SK-MEL-28
[2] = test system: SF-268
[3] = test system: NCI-H23
[4] = test system: PC-3
[5] = test system: U-251
[6] = test system: UACC-257
[7] = test system: DU-145
[8] = test system: HL-60
[9] = test system: MDA-N
[10] = test system: KM12
[11] = test system: HOP-62
[12] = test system: NCI-H226
[13] = test system: SF-295
[14] = test system: ACHN
[15] = test system: HCT-116
[16] = test system: OVCAR-3
[17] = test system: MOLT-4
[18] = test system: RXF 393

Measured: GI50

O=C(CC(O)(C(F)(F)F)C(F)(F)F)C(CCCl)C(O)(C(F)(F)F)C(F)(F)F (stereo unspecified)
inactive: [1] 57.3 µM | [2] 30.7 µM | [3] 33.2 µM | [4] 15.5 µM | [5] 35.6 µM | [6] 30.8 µM | [7] 39.7 µM | [8] 16.6 µM | [9] > 100 µM | [10] 42.3 µM | [11] 33.3 µM | [12] 23.5 µM | [13] 33.5 µM | [14] 30.5 µM | [15] 26.7 µM | [16] 11.5 µM | [17] 71.9 µM | [18] 21.1 µM

N#Cc1c2c(c(Nc3ccc(F)cc3)n3c1nc1ccccc13)CCC2
inactive: [1] 9.27 µM | [2] 3.55 µM | [3] 4.93 µM | [4] 5.14 µM | [5] 2.84 µM | [6] 7.96 µM | [7] 3.61 µM | [8] 3.96 µM | [9] 3.47 µM | [10] 6.55 µM | [11] 3.03 µM | [12] 6.81 µM | [13] 5.05 µM | [14] 2.29 µM | [15] 1.76 µM | [16] 7.89 µM | [17] 7.73 µM | [18] 2.14 µM

COc1ccc(/C=C/C(=O)Oc2cc(O)cc(O)c2)cc1
inactive: [1] > 100 µM | [2] 26.2 µM | [3] 42.1 µM | [4] 43.6 µM | [5] 24.6 µM | [6] > 100 µM | [7] 56.6 µM | [8] 22 µM | [9] 58.5 µM | [10] 14.2 µM | [11] 17.3 µM | [12] > 100 µM | [13] 23.2 µM | [14] 87.5 µM | [15] 14.3 µM | [16] 18 µM | [17] 11.3 µM | [18] 72.4 µM

Cc1ccc2c(c1)C=CC(C#N)N2C(=O)Oc1ccccc1 (stereo unspecified)
inactive: [1] 77.8 µM | [2] 29.9 µM | [3] 19.5 µM | [4] 26.3 µM | [5] 23.7 µM | [6] 39.8 µM | [7] 17.9 µM | [8] 18.9 µM | [9] 29 µM | [10] 17.1 µM | [12] 31 µM | [14] 27 µM | [15] 37.9 µM | [17] 19.6 µM | [18] 37.7 µM

NNC(=O)c1cc([N+](=O)[O-])ccc1NC(=O)C12CC3CC(CC(C3)C1)C2
inactive: [2] 3.82 µM | [3] 19.5 µM | [4] 13 µM | [5] 6.92 µM | [6] 15.2 µM | [7] 20 µM | [8] 3.09 µM | [9] 21 µM | [10] 20.1 µM | [11] 16.3 µM | [12] 4.62 µM | [13] 14 µM | [14] 10 µM | [15] 7.74 µM | [16] 3.15 µM | [17] 3.32 µM | [18] 7.98 µM

O=c1[nH]c(=O)n(COCc2ccccc2)c2ccccc12
inactive: [1] 91.4 µM | [4] 39.7 µM | [5] 52.1 µM | [6] 53.7 µM | [7] > 100 µM | [8] 19.9 µM | [9] 83 µM | [10] 59.8 µM | [12] 47.8 µM | [13] > 100 µM | [14] 32.1 µM | [15] 46.3 µM | [16] 87.3 µM | [17] 44.4 µM | [18] 19.1 µM

Nc1c(-c2ccccc2)c2ccc([N+](=O)[O-])cc2c(=O)n1-c1cccc(C(=O)O)c1
inactive: [1] > 100 µM | [2] > 100 µM | [3] > 100 µM | [4] > 100 µM | [5] > 100 µM | [6] > 100 µM | [7] > 100 µM | [8] 38.3 µM | [9] > 100 µM | [10] > 100 µM | [11] > 100 µM | [12] > 100 µM | [13] > 100 µM | [14] > 100 µM | [15] > 100 µM | [16] > 100 µM | [17] > 100 µM | [18] > 100 µM

CCNc1ncnc2nn[nH]c12
inactive: [1] > 100 µM | [3] > 100 µM | [4] > 100 µM | [5] > 100 µM | [6] > 100 µM | [7] > 100 µM | [8] > 100 µM | [9] > 100 µM | [10] > 100 µM | [11] > 100 µM | [12] > 100 µM | [13] > 100 µM | [14] > 100 µM | [15] > 100 µM | [16] > 100 µM | [17] > 100 µM | [18] > 100 µM

O=C(O)C1C(=O)Oc2c(cccc2[N+](=O)[O-])C1O (stereo unspecified)
inactive: [1] > 100 µM | [2] > 100 µM | [3] > 100 µM | [4] > 100 µM | [5] > 100 µM | [6] > 100 µM | [7] > 100 µM | [8] > 100 µM | [9] > 100 µM | [11] > 100 µM | [12] > 100 µM | [13] > 100 µM | [14] > 100 µM | [15] > 100 µM | [16] > 100 µM | [17] > 100 µM | [18] > 100 µM

Cc1ccccc1NC(=O)/C(C#N)=N\Nc1[nH]cnc1C(N)=O
inactive: [1] 28.7 µM | [2] 4.11 µM | [3] 32.6 µM | [4] 4.44 µM | [5] 37.1 µM | [6] 15.2 µM | [7] 2.79 µM | [8] > 100 µM | [9] 12.9 µM | [10] 28.6 µM | [11] 6.12 µM | [12] 41.4 µM | [13] 9.82 µM | [14] 5.28 µM | [15] 4.37 µM | [16] 2.42 µM | [17] 2.88 µM | [18] 15.3 µM

O=C1/C(=C/c2ccc(O)c(O)c2)CC/C1=C\c1ccc(O)c(O)c1
inactive: [1] 14.2 µM | [2] 5.52 µM | [3] 3.09 µM | [4] 11.8 µM | [5] 3.97 µM | [6] 20.8 µM | [7] 9.46 µM | [8] 3.39 µM | [9] 4.61 µM | [10] 9.79 µM | [11] 7.11 µM | [12] 7.46 µM | [13] > 44.5 µM | [14] 4.98 µM | [15] 3.58 µM | [16] 5.09 µM | [17] 3.23 µM | [18] 3.25 µM

CCOS(C)(=O)=O [METHANESULFONIC ACID ETHYL ESTER]
inactive: [1] > 100 µM | [2] > 100 µM | [3] > 100 µM | [4] > 100 µM | [5] > 100 µM | [6] > 100 µM | [7] > 100 µM | [8] > 100 µM | [9] > 100 µM | [10] > 100 µM | [12] > 100 µM | [13] > 100 µM | [14] > 100 µM | [15] > 100 µM | [16] > 100 µM | [17] > 100 µM | [18] > 100 µM
